The assay has as its target Nuclear receptor coactivator 1 (Homo sapiens) (UniProt Q15788). The assay can be described thus: SRC1 coactivator transcriptional activity inhibitors, dose response, counter-screen for SRC3 inhibitor project, cell-based, luminescence (AID 602168). As to conditions: Cell-based SRC1 luciferase reporter.

The structures appear in SMILES notation. pIC50: −log10 of the molar value. Activity calls are given as the source filed them. No rule for the calls is given here.

Sequence of Nuclear receptor coactivator 1 (Homo sapiens) (Q15788 whole entry, looked up): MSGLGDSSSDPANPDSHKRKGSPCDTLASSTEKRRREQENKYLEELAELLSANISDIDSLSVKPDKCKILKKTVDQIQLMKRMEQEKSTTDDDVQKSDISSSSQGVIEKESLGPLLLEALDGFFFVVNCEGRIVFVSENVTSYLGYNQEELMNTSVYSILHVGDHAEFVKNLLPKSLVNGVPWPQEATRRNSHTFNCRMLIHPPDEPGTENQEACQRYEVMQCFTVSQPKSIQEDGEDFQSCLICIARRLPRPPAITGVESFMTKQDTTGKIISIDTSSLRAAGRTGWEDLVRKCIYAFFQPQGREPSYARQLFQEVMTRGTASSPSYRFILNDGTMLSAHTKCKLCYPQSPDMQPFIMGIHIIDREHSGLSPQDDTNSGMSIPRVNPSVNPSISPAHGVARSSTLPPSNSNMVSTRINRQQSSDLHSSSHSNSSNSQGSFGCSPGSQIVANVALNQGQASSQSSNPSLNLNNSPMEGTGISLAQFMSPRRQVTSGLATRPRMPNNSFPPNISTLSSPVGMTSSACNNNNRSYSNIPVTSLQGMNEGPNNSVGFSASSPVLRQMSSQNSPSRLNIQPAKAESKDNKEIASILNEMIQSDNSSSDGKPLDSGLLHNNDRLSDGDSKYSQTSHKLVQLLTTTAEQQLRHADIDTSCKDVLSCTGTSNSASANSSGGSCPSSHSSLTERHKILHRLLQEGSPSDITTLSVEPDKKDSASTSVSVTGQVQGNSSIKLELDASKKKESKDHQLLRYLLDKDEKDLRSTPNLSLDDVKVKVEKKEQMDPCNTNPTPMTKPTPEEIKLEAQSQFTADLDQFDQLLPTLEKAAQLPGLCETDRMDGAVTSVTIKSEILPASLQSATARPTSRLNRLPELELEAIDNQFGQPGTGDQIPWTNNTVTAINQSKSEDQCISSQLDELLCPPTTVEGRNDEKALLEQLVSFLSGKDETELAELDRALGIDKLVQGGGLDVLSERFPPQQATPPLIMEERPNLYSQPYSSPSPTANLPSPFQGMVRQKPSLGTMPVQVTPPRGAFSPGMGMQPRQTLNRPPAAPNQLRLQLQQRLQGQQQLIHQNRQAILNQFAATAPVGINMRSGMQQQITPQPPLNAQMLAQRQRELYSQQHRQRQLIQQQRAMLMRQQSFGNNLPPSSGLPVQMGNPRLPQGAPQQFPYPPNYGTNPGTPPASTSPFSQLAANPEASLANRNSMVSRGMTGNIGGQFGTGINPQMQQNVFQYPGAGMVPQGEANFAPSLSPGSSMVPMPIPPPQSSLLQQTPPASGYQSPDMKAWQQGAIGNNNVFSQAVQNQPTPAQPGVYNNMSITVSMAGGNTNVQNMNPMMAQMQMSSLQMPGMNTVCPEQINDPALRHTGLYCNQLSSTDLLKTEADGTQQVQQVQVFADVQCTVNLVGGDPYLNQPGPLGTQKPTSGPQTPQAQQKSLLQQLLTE

Usually IC50 stands for the midpoint of a concentration-inhibition curve. Turning to `CC(=O)Nc1ccc(SCC(=O)c2cc(C)n(-c3ccccc3)c2C)cc1`, the IC50 is > 35.9 µM (inactive).

Turning to `CN1C(=O)C2(C(C#N)=C(N)N(c3cc(Cl)cc(Cl)c3)C3=C2C(=O)CC(C)(C)C3)c2ccccc21` (stereo not given), the IC50 was > 35.9 µM (inactive).

In the case of `CC(C)(C)c1ccc(Oc2ccc(N)cn2)cc1`, the IC50 entry is “inactive”.

Turning to `O=C(N/N=C(\c1ccccc1)c1ccccn1)c1ccccc1Cl`, the IC50 entry was “inactive”.

Turning to `COc1cc2c(ccc3cc(OC)c(OC)c(O)c32)cc1O`, the IC50 result was “inactive”.

As for `CCN(c1cccc(C)c1)c1ncnc2nc[nH]c12`, the IC50 entry was “inactive”.

Consider `C=CC[n+]1c(-c2ccc(C)cc2)csc1Nc1ccc(NC(C)=O)cc1`, for which the IC50 was > 35.9 µM (inactive).

Regarding `NC(=S)N/N=C1\CCOc2ccc(Cl)cc21`, the IC50 was > 35.9 µM (inactive).

As to `Cc1ccc(C2=NN(C(=O)CCl)C(c3cccs3)C2)o1` (stereo not given), the IC50 result was “inactive”.

Usually pIC50 stands for the negative decadic logarithm of the IC50, by convention in mol/L. On to `COc1cc(/C=N/NC(=Nc2ccc(C)cc2)c2nc3ccccc3s2)ccc1O`, for which the pIC50 was 5.09.

In the case of `CS(=O)(=O)c1ccc(Sc2nc3ccccc3s2)c([N+](=O)[O-])c1`, the IC50 is > 35.9 µM (inactive).

Turning to `CCOC(=O)C(C(C)=O)c1c(Br)c(O)c(O)c2c(C(=O)c3ccc(C)cc3)coc12` (stereo not given), the IC50 is > 35.9 µM (inactive).

As for `COCCNC(=O)c1cc(-c2ccccn2)nc2ccc(S(=O)(=O)N3CCC(C)CC3)cc12`, the IC50 was > 35.9 µM (inactive).

On to `C=CCn1c(O)c(C(C)=NCc2cc(OC)cc(OC)c2)c(=O)[nH]c1=O`, for which the IC50 was > 35.9 µM (inactive).

For `COc1cc(C(=O)OCC(=O)Nc2sccc2C(N)=O)cc(OC)c1OC`, the IC50 was > 35.9 µM (inactive).

Turning to `Cc1ccc(NC(=O)c2cc(C)n(-c3ccccc3)c2C)cc1`, the IC50 is > 35.9 µM (inactive).

Consider `COc1cccc(CNc2ncnc3ccc(-c4c(C)noc4C)cc23)c1`, for which the IC50 is > 35.9 µM (inactive).

For the compound `O=C(OCCC12CC3CC(CC(C3)C1)C2)c1ccc(NCc2cc(O)ccc2O)cc1`, the IC50 result was “inactive”.

Take `C/C(=N\NC(=S)Nc1cc(S(=O)(=O)N2CCOCC2)ccc1Cl)c1ccccc1F`: the IC50 result is “inactive”.

With `CCCC(=O)NC(c1ccc(Cl)cc1Cl)c1ccc2cccnc2c1O` (stereo not given), the pIC50 is 5.22.

As for `CCC(=O)c1ccc(O)c(CC=C(C)C)c1`, the IC50 result is “inactive”.

Take `COc1ccc(OC)c(Cc2cnc3nc(N)nc(N)c3c2C)c1`: the IC50 is > 35.9 µM (inactive).

For the compound `CCOc1ccc(-c2cc(C)n3nc(C(N)=O)cc3n2)cc1`, the IC50 result was “inactive”.

With `CCn1c2ccccc2c2cnc(N=CN(C)C)c(C#N)c21`, the IC50 result is “inactive”.

For `COc1ccc(Nc2ccncc2[N+](=O)[O-])cc1`, the pIC50 is 5.04.

For the compound `c1csc(Cc2nn3c(-c4ccncc4)nnc3s2)c1`, the IC50 entry was “inactive”.

In the case of `O=C(N/N=C/c1cc(Br)c(Br)s1)c1ccncc1`, the IC50 entry was “inactive”.

As to `COc1ccc(COC(=O)C2=C(C)NC(=O)NC2c2ccc(F)cc2)cc1` (stereo not given), the IC50 result is “inactive”.

Turning to `Nc1ncccc1C(=O)OCC(=O)N1CCN(S(=O)(=O)c2ccc(Cl)cc2)CC1`, the IC50 entry was “inactive”.

`Cc1ncc(CO)c(/C=N/NC(=O)c2cc3c(s2)CCCC3)c1O`: the IC50 entry was “inactive”.

As to `Cc1ccc2nc(C(F)(F)F)c(C#N)c(N)c2c1`, the IC50 entry was “inactive”.

In the case of `Cc1ccc(N(CCC#N)C(=O)CCl)cc1C`, the IC50 result was “inactive”.

`CCOC(=O)c1cc2sccc2n1CC(=O)N1CCc2ccccc21`: the IC50 is > 35.9 µM (inactive).

`COc1cc(/C=C2\CC(C(C)(C)C)C/C(=C\c3cc(OC)c(OC)c(OC)c3)C2=O)cc(OC)c1OC` (stereo not given): the IC50 is > 35.9 µM (inactive).

`O=c1[nH]c2ccccc2n1C1CCN(C(c2ccccc2)c2nnnn2-c2ccc3c(c2)OCCO3)CC1` (stereo not given): the IC50 entry was “inactive”.

Regarding `Cn1cnc([N+](=O)[O-])c1Sc1nc(N)nc2c1ncn2C1OC(CO)C(O)C1O` (stereo not given), the IC50 is > 35.9 µM (inactive).

`CCOc1ccc(CC(=O)Nc2ccc(NC(=O)c3ccco3)cc2)cc1OCC`: the negative-log IC50 (pIC50) was 5.37.

Regarding `CC(=O)OCCN1c2ccccc2Sc2cnccc21`, the IC50 result is “inactive”.

`COc1ccc(-c2nsc3c(N4CCCCC4)ncnc23)cc1`: the IC50 was > 35.9 µM (inactive).

With `O=c1[nH]c2ccccc2n1C1CCN(C(c2ccccc2)c2nnnn2Cc2ccccc2)CC1` (stereo not given), the IC50 result was “inactive”.

For `COc1ccc(/C=C2/SC(=S)N(CCC(=O)O)C2=O)cc1`, the IC50 is > 35.9 µM (inactive).

`O=C(COc1ccc(Cl)cc1)Nc1ccc(C(=O)NCc2cccnc2)cc1`: the pIC50 was 5.03.

Consider `COc1ccc(C)cc1NS(=O)(=O)c1ccc(NC(=O)CN(c2cc([N+](=O)[O-])ccc2C)S(C)(=O)=O)cc1`, for which the IC50 entry was “inactive”.

Take `CCc1ccc(-c2nc(CSCC(=O)NCc3ccco3)c(C)o2)cc1`: the IC50 is > 35.9 µM (inactive).

Consider `COc1ccc2[nH]c(=O)c(CN(CCN3CCCC3)C(=O)Nc3ccccc3Cl)cc2c1`, for which the IC50 result was “inactive”.

On to `O=C(N/N=C\c1ccc([N+](=O)[O-])o1)C1COc2ccccc2O1` (stereo not given), for which the IC50 is > 35.9 µM (inactive).

On to `O=[N+]([O-])c1ccc(N(CCO)CCO)c2c1no[n+]2[O-]`, for which the IC50 entry was “inactive”.

As to `Cc1cc(C(=O)COC(=O)C2=COCCO2)c(C)n1-c1ccccc1`, the IC50 result is “inactive”.

As to `O=c1[nH]cnc2c1nnn2C1OC(CO)C(O)C1O` (stereo not given), the IC50 is > 35.8 µM (inactive).

As to `Cc1nnc(SC(=O)N2c3ccccc3Sc3ccccc32)s1`, the IC50 is > 35.9 µM (inactive).

Consider `O=S(=O)(/C(=C\c1ccc(C(F)(F)F)cc1)c1nc2ccccc2[nH]1)c1ccccc1`, for which the IC50 was > 12 µM (inactive).

With `CC(C)(C)n1ncc2c(=O)n(CC(=O)OCc3ccccc3)cnc21`, the IC50 was > 35.9 µM (inactive).

As to `CN1CCN(c2ccc(NC(=O)N3CCc4ccccc43)cc2)CC1`, the IC50 was > 35.9 µM (inactive).

Regarding `O=c1[nH]c2ccccc2n1C1CCN(C(c2cc3ccccc3o2)c2nnnn2Cc2ccccc2)CC1` (stereo not given), the IC50 result was “inactive”.

As to `O=C(CC1CS(=O)(=O)CC1CC(=O)Nc1ccc2c(c1)OCCO2)Nc1ccc2c(c1)OCCO2` (stereo not given), the IC50 was > 35.9 µM (inactive).

With `COC(=O)c1c(C)n(-c2ccc(OC)cc2)c2ccc(O)cc12`, the negative logarithm of the IC50 (pIC50) was 5.09.

Consider `COc1ccccc1C(=O)N(CCC1CCCN1C)c1nc2ccccc2s1` (stereo not given), for which the IC50 is > 35.9 µM (inactive).

Regarding `Cc1nc(N)nc(N)c1-c1ccc(Cl)c(Cl)c1`, the pIC50 was 5.27.

With `CS(=O)c1nc(-c2ccc(Br)cc2)cc(-c2ccccc2)c1C#N` (stereo not given), the IC50 entry is “inactive”.

In the case of `CCOc1cc(/C=C2\CCC/C(=C\c3cc(Cl)c(O)c(OCC)c3)C2=O)cc(Cl)c1O`, the IC50 was > 35.8 µM (inactive).

(Values after PubChem BioAssay AID602168 (The Scripps Research Institute Molecular Screening Center, 2012).)
